Here are results for 2 substances from article PMC9034974, “Physicochemical characterization of the recombinant lectin scytovirin and microbicidal activity of the SD1 domain produced in rice against HIV-1” (Plant Cell Reports, 2022).

Format in all cases: binding
For assay [1], the target named is T1, SD1 (structural domain 1 of scytovirin) (Scytonema varium, UniProt P86041).
T1 construct: isolated N-terminal domain SD1 (residues 1-48), recombinant from E. coli, purified
T1 sequence (P86041 1-48): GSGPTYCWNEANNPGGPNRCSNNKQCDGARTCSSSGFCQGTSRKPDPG
In words: differential scanning calorimetry. As to conditions: 10 mM sodium phosphate pH 7.4, 3 mM sodium azide; 20 µM protein, 60 °C/h; shift is a decrease (destabilization).

For assay [2], the target named is T2, scytovirin (SVN) (Scytonema varium, UniProt P86041).
T2 sequence (P86041 1-95): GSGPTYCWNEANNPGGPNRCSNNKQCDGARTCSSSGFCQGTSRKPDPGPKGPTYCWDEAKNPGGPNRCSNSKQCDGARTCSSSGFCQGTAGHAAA
In words: isothermal titration calorimetry. The note with it: 10 mM sodium phosphate pH 7.4, 3 mM sodium azide, 30 °C; one set of identical sites. The text has this: isothermal titration calorimetry on scytovirin (SVN)
Background: In ITC the heat of successive injections is recorded.

Assay [3] has as its target T2, scytovirin (SVN). In words: differential scanning calorimetry. As to conditions: 10 mM sodium phosphate pH 7.4, 3 mM sodium azide; 20 µM protein, 60 °C/h; Tm of the complex, not a shift; free SVN in the 2nd table, row 3. From the text:
differential scanning calorimetry on scytovirin (SVN)
On the technique in general: In DSC, transitions show as peaks or steps in heat flow.

One may read the Kd as the concentration at which binding is half-saturated. On to tetramannoside, for which the ΔTm in assay [1] was ~ 11.5 °C. The dissociation constant (Kd) at scytovirin (SVN) [2] was 17.8 ± 2.75 µM.
At scytovirin (SVN) [2], nonamannoside registered a Kd of 3.99 ± 0.93 µM. Further, the “Tm °C” value at scytovirin (SVN) [3] amounted to 56.50 ± 0.05 °C.
